# From US11066414B2, “Cot modulators and methods of use thereof” (Gilead Sciences, Inc., priority 2015, dated 2021)
# Read-outs that look alike come from different tables or passages of the source.
# Tested on: TNFα
# Test: Cot Monocyte TNFα Cell Based Assay
# [1] = Homo sapiens, Monocyte, read-out: EC50 TNF, LPS-stimulated human monocytes, TNFα
# [2] = read-out: EC50 TNF, LPS-stimulated human monocytes, TNFα
EC50 [1],EC50 [2],Structure (SMILES)
235 nM,–,"Cc1scnc1[C@H](Nc1cc(Cl)c2ncc(C#N)c(Nc3ccc(F)c(Cl)c3)c2c1)c1cn(C2CCN(C(C)(C)C)CC2)nn1 [Example 137, (S)-6-(((1-(1-(tert-butyl)piperidin-4-yl)-1H-1,2,3-triazol-4-yl)(5-methylthiazol-4-yl)methyl)amino)-8-chloro-4-((3-chloro-4-fluorophenyl)amino)quinoline-3-carbonitrile]"
1190 nM,–,"N#Cc1cnc2c(Cl)cc(N[C@@H](C3=CCOCC3)c3c[nH]nn3)cc2c1Nc1cnc(F)c(F)c1 [Example 156, (S)-8-chloro-4-((5,6-difluoropyridin-3-yl)amino)-6-(((3,6-dihydro-2H-pyran-4-yl)(1H-1,2,3-triazol-4-yl)methyl)amino)quinoline-3-carbonitrile]"
1670 nM,–,"N#Cc1cnc2c(Cl)cc(N[C@H](c3c[nH]nn3)c3cccnc3Cl)cc2c1Nc1cnc(F)c(F)c1 [Example 161, (S)-8-chloro-6-(((2-chloropyridin-3-yl)(1H-1,2,3-triazol-4-yl)methyl)amino)-4-((5,6-difluoropyridin-3-yl)amino)quinoline-3-carbonitrile]"
4140 nM,–,"N#Cc1cnc2c(Cl)cc(N[C@@H](c3cnc(F)c(F)c3)c3c[nH]nn3)cc2c1Nc1cnc(F)c(F)c1 [Example 163, (S)-8-chloro-6-(((5,6-difluoropyridin-3-yl)(1H-1,2,3-triazol-4-yl)methyl)amino)-4-((5,6-difluoropyridin-3-yl)amino)quinoline-3-carbonitrile]"
1220 nM,–,"Cc1nc(Cl)ccc1[C@H](Nc1cc(Cl)c2ncc(C#N)c(Nc3cnc(F)c(F)c3)c2c1)c1c[nH]nn1 [Example 169, (S)-8-chloro-6-(((6-chloro-2-methylpyridin-3-yl)(1H-1,2,3-triazol-4-yl)methyl)amino)-4-((5,6-difluoropyridin-3-yl)amino)quinoline-3-carbonitrile]"
1260 nM,–,"Cc1ncsc1[C@H](Nc1cc(Cl)c2ncc(C#N)c(Nc3cnc(F)c(F)c3)c2c1)c1c[nH]nn1 [Example 170, (R)-8-chloro-4-((5,6-difluoropyridin-3-yl)amino)-6-(((4-methylthiazol-5-yl)(1H-1,2,3-triazol-4-yl)methyl)amino)quinoline-3-carbonitrile]"
92 nM,–,"CC[C@@H](Nc1c(C#N)cnc2c(Cl)cc(N[C@@H](c3cccnc3)c3cn([C@@H](C)CF)nn3)cc12)c1ccccc1 [Example 181, 8-chloro-6-(((S)-(1-((S)-1-fluoropropan-2-yl)-1H-1,2,3-triazol-4-yl)(pyridin-3-yl)methyl)amino)-4-(((R)-1-phenylpropyl)amino)quinoline-3-carbonitrile]"
1040 nM,–,"N#Cc1cnc2c(Cl)cc(N[C@@H](c3cccnc3)c3cn(C4COC4)nn3)cc2c1N[C@@H](CCO)c1ccccc1 [Example 182, 8-chloro-4-(((S)-3-hydroxy-1-phenylpropyl)amino)-6-(((S)-(1-(oxetan-3-yl)-1H-1,2,3-triazol-4-yl)(pyridin-3-yl)methyl)amino)quinoline-3-carbonitrile]"
111 nM,–,"CC[C@@H](Nc1c(C#N)cnc2c(Cl)cc(N[C@@H](c3cccnc3)c3cn(C4COC4)nn3)cc12)c1ccccc1 [Example 194, 8-chloro-6-(((S)-(1-(oxetan-3-yl)-1H-1,2,3-triazol-4-yl)(pyridin-3-yl)methyl)amino)-4-(((R)-1-phenylpropyl)amino)quinoline-3-carbonitrile]"
211 nM,–,"N#Cc1cnc2c(Cl)cc(N[C@@H](c3cccnc3)c3cn(C4CC4)nn3)cc2c1Nc1cnc(F)c(F)c1 [Example 206, (S)-8-chloro-6-(((1-cyclopropyl-1H-1,2,3-triazol-4-yl)(pyridin-3-yl)methyl)amino)-4-((5,6-difluoropyridin-3-yl)amino)quinoline-3-carbonitrile]"
–,465 nM,CC(C)(C)N1CCC(n2cc([C@@H](Nc3cc(Cl)c4ncc(C#N)c(Nc5cnc(F)c(F)c5)c4c3)c3cccnc3)nn2)CC1 [Example 208]
941 nM,–,"N#Cc1cnc2c(Cl)cc(N[C@@H](c3cccnc3)c3cn(CC(F)(F)F)nn3)cc2c1Nc1cnc(F)c(F)c1 [Example 209, (S)-8-chloro-4-((5,6-difluoropyridin-3-yl)amino)-6-((pyridin-3-yl(1-(2,2,2-trifluoroethyl)-1H-1,2,3-triazol-4-yl)methyl)amino)quinoline-3-carbonitrile]"
103 nM,–,"CC[C@@H](Nc1c(C#N)cnc2c(Cl)cc(N[C@@H](c3cccnc3)c3cn(C4CCCC4)nn3)cc12)c1ccccc1 [Example 213, 8-chloro-6-(((S)-(1-cyclopentyl-1H-1,2,3-triazol-4-yl)(pyridin-3-yl)methyl)amino)-4-(((R)-1-phenylpropyl)amino)quinoline-3-carbonitrile]"
264 nM,–,"Cc1ncsc1[C@H](Nc1cc(Cl)c2ncc(C#N)c(Nc3ccc(Cl)c(Cl)c3F)c2c1)c1cn(C2COC2)nn1 [Example 217, (R)-8-chloro-4-((3,4-dichloro-2-fluorophenyl)amino)-6-(((4-methylthiazol-5-yl)(1-(oxetan-3-yl)-1H-1,2,3-triazol-4-yl)methyl)amino)quinoline-3-carbonitrile]"
2630 nM,–,"Cc1ncccc1[C@H](Nc1cc(Cl)c2ncc(C#N)c(Nc3cccc(Cl)c3)c2c1)c1c[nH]nn1 [Example 224, (S)-8-chloro-4-((3-chlorophenyl)amino)-6-(((2-methylpyridin-3-yl)(1H-1,2,3-triazol-4-yl)methyl)amino)-quinoline-3-carbonitrile]"
1470 nM,–,"Cc1ncccc1[C@H](Nc1cc(Cl)c2ncc(C#N)c(N[C@H](C)c3ccccc3)c2c1)c1c[nH]nn1 [Example 229, 8-chloro-6-(((S)-(2-methylpyridin-3-yl)(1H-1,2,3-triazol-4-yl)methyl)amino)-4-(((R)-1-phenylethyl)amino)quinoline-3-carbonitrile]"
–,230 nM,Cc1ncccc1[C@H](Nc1cc(Cl)c2ncc(C#N)c(N[C@H](C)c3ccccc3)c2c1)c1cn(C2CCN(C(C)(C)C)CC2)nn1 [Example 231]
346 nM,–,"Cc1ncccc1[C@H](Nc1cc(Cl)c2ncc(C#N)c(Nc3ccc(Cl)c(Cl)c3F)c2c1)c1cn(C(C)C)nn1 [Example 232, (S)-8-chloro-4-((3,4-dichloro-2-fluorophenyl)amino)-6-(((1-isopropyl-1H-1,2,3-triazol-4-yl)(2-methylpyridin-3-yl)methyl)amino)quinoline-3-carbonitrile]"
–,332 nM,"Cc1cncc([C@H](Nc2cc(Cl)c3ncc(C#N)c(Nc4ccc(F)c(Cl)c4)c3c2)c2c[nH]nn2)c1 [Example 249, (S)-8-chloro-4--((3-chloro-4-fluorophenyl)amino)-6-(((5-methylpyridin-3-yl)(1H-1,2,3-triazol-4-yl)methyl)amino)quinoline-3-carbonitrile]"
344 nM,–,"Cc1nc(C)c([C@H](Nc2cc(Cl)c3ncc(C#N)c(Nc4ccc(F)c(Cl)c4)c3c2)c2cn(C3CCN(C(C)(C)C)CC3)nn2)s1 [Example 261, (R)-6-(((1-(1-(tert-butyl)piperidin-4-yl)-1H-1,2,3-triazol-4-yl)(2,4-dimethyl-thiazol-5-yl)methyl)amino)-8-chloro-4-((3-chloro-4-fluorophenyl)amino)-quinoline-3-carbonitrile]"
